Measurements published in US7572793B2, “3-Substituted-4-pyrimidone derivatives” (Mitsubishi Tanabe Pharma Corporation, priority 2001, dated 2009).

Molecular target: T1, bovine cerebral TPK1 (Bos taurus, UniProt A0A3Q1MT31)
T1 construct: from tissue; host or cells: bovine brain (cerebrum)
Assay: Inhibitory activity against P-GS1 phosphorylation by bovine cerebral TPK1
Assay type: biochemical
Settings: 41.7 μM [γ-32P]ATP, 25° C., 2 hours, pH 6.5
Procedure: Inhibitory Activity of the Medicament of the Present Invention Against P-GS1 Phosphorylation by Bovine Cerebral TPK1
A mixture containing 100 mM MES-sodium hydroxide (pH 6.5), 1 mM magnesium acetate, 0.5 mM EGTA, 5 mM β-mercaptoethanol, 0.02% Tween 20, 10% glycerol, 12 μg/ml P-GS1, 41.7 μM [y-^32P] ATP (68 kBq/ml), bovine cerebral TPK1 and a compound shown in Table (a final mixture contained 1.7% DMSO deriving from a solution of a test compound prepared in the presence of 10% DMSO) was used as a reaction system. The phosphorylation was started by adding ATP, and the reaction was conducted at 25° C. for 2 hours, and then stopped by adding 21% perchloric acid on ice cooling. The reaction mixture was centrifuged at 12,000 rpm for 5 minutes and adsorbed on P81 paper (Whatmann), and then the paper was washed four times with 75 mM phosphoric acid, three times with water and once with acetone. The paper was dried, and the residual radioactivity was measured using a liquid scintillation counter. […] PHF formation, and that the medicaments of the present invention are effective for preventive and/or therapeutic treatment of Alzheimer disease and the above-mentioned diseases.

T1 sequence (A0A3Q1MT31 1-419): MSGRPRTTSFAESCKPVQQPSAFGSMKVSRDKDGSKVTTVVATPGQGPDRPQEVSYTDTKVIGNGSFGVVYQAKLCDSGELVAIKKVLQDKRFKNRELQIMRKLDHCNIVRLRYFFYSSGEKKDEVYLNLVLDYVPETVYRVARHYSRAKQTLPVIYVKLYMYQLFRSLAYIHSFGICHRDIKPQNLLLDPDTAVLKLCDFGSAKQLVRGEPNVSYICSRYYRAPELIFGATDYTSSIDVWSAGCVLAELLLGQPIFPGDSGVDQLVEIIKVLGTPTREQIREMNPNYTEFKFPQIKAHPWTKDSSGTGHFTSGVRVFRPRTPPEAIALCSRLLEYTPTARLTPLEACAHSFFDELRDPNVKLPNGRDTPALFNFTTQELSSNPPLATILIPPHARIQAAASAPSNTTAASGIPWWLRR

IC50 [nM]	SMILES
0.57	COc1ccc(-c2cccc(CN3CCCC3)c2)cc1C1CN(c2nc(-c3ccncn3)cc(=O)n2C)CCO1 (stereo not drawn) [Compound B274]
1.4	COc1cc(-c2ccccc2F)ccc1C1CN(c2nc(-c3ccncn3)cc(=O)n2C)CCO1 (stereo not drawn) [Compound B277]
1.1	COc1cc(-c2cccc(F)c2)ccc1C1CN(c2nc(-c3ccncn3)cc(=O)n2C)CCO1 (stereo not drawn) [Compound B278]
1.2	COc1cc(-c2ccc(F)cc2)ccc1C1CN(c2nc(-c3ccncn3)cc(=O)n2C)CCO1 (stereo not drawn) [Compound B279]
0.6	COc1ccc(-c2ccccn2)cc1C1CN(c2nc(-c3ccncn3)cc(=O)n2C)CCO1 (stereo not drawn) [Compound B280]
0.84	COc1cccc(-c2ccc(OC)c(C3CN(c4nc(-c5ccncn5)cc(=O)n4C)CCO3)c2)n1 (stereo not drawn) [Compound B281]
1.9	COc1ncc(-c2ccc(OC)c(C3CN(c4nc(-c5ccncn5)cc(=O)n4C)CCO3)c2)c(OC)n1 (stereo not drawn) [Compound B283]
11	Cn1c(N2CCOC3(CCOc4ccccc43)C2)nc(-c2ccncn2)cc1=O (stereo not drawn) [Compound B284]
26	Cn1c(N2CCOC3(CCCOc4ccccc43)C2)nc(-c2ccncn2)cc1=O (stereo not drawn) [Compound B285]
1.1	Cn1c(N2CCCC(C(=O)c3ccccc3)C2)nc(-c2ccncn2)cc1=O (stereo not drawn) [Compound C401]
0.56	Cn1c(N2CCOC(C(=O)c3ccccc3)C2)nc(-c2ccncn2)cc1=O (stereo not drawn) [Compound C501]
1.1	Cn1c(N2CCC(C(=O)c3ccc(Cl)cc3)CC2)nc(-c2ccncn2)cc1=O [Compound D034, 2-[4-(4-Chlorobenzoyl)piperidin-1-yl]-3-methyl-6-pyrimidin-4-yl-3H-pyrimidin-4-one]
